Results published in US20240050574A1, “IONIZABLE LIPIDS” (eTheRNA immunotherapies NV, priority 2020, published 2024).

How the values were obtained:
[1] = mRNA encapsulation efficiency by Ribogreen RNA assay; assay type: physicochemical; conditions: for % encap: eGFP mRNA; for E.E. (encapsulation efficiency): N/P 10
Method: Lipid based nanoparticles are produced by microfluidic mixing of an mRNA solution in sodium acetate buffer (100 mM, pH4) and lipid solution in a 2:1 volume ratio at a speed of 9 mL/min using the NanoAssemblr Benchtop (Precision Nanosystems). The lipid solution contained a mixture of the ionizable lipid of interest, DSPC, DOPC or DOPE (Avanti), Cholesterol (Sigma) and DMG-PEG2000 (Sunbright GM-020, NOF corporation. The 4 lipids were mixed at 6 different molar ratios. LNPs were dialyzed against TBS (10000 times more TBS volume than LNP volume) using slide-a-lyzer dialysis cassettes (20K MWCO, 3 mL, ThermoFisher). Size, polydispersity and zeta potential were measured with a Zetasizer Nano (Malvern). mRNA encapsulation was measured by standard Ribogreen RNA assay (Invitrogen). […]
(§1) LNP formulations were prepared using a modified procedure of a method previously described for siRNA LNP synthesis. All formulations were prepared in a sterile manner with a N/P ratio of 10. All lipid components were dissolved in ethanol at molar ratios of 50:10:38.5:1.5 mol % (ionizable lipid/DSPC/Cholesterol/DMG-PEG2000). DSPC, Cholesterol and DMG-PEG2000 were purchased from Avanti Polar Lipids (Alabaster, Alabama, USA), while the Ionizable lipids are synthesized in-house. The final lipid concentration in ethanol was fixed at 10 mg/mL. E7 mRNA was dissolved in 100 mM acetate buffer (Sigma Aldrich, Saint-Louis, Missouri, USA) pH 4. The ethanol and aqueous phase were combined using a microfluidic mixer (NanoAssemblr® BenchTop (Precision Nanosystems, Vancouver, BC) in a 2:1 (aqueous:ethanol) ratio. Formulations were dialysed afterwards against 1× Sterile TBS pH 7.4 (Sigma Aldrich, Saint-Louis, Missouri, USA) using Slide-A-Lyzer® dialysis cassettes with a MWCO of 20.000 Da (Thermo Scientific, Massachusetts, USA) for 18 hours. Afterwards, the purified formulations were concentrated using Amicon ultra centrifugal filters (EMD Millipore, Massachusetts, USA). Finally, the exact concentration and E.E. % was determined through a Ribogreen Assay prior to final dilution with TBS (100 μg/mL E7 mRNA per formulation. All formulations were characterized for size and PDI using Dynamic Light Scattering Zetasizer Nano-ZS (Malvern Pananlytical Ltd., Malvern, UK) and stored afterwards at 4° C. The physico-chemical characteristics of each formulation can be found in Table 5.

[2] = LNP size and polydispersity index by Dynamic Light Scattering (Malvern Zetasizer); assay type: physicochemical
[3] = as above; assay type: physicochemical; conditions: N/P 10
Method: Lipid based nanoparticles are produced by microfluidic mixing of an mRNA solution in sodium acetate buffer (100 mM, pH4) and lipid solution in a 2:1 volume ratio at a speed of 9 mL/min using the NanoAssemblr Benchtop (Precision Nanosystems). The lipid solution contained a mixture of the ionizable lipid of interest, DSPC, DOPC or DOPE (Avanti), Cholesterol (Sigma) and DMG-PEG2000 (Sunbright GM-020, NOF corporation. The 4 lipids were mixed at 6 different molar ratios. LNPs were dialyzed against TBS (10000 times more TBS volume than LNP volume) using slide-a-lyzer dialysis cassettes (20K MWCO, 3 mL, ThermoFisher). Size, polydispersity and zeta potential were measured with a Zetasizer Nano (Malvern). mRNA encapsulation was measured by standard Ribogreen RNA assay (Invitrogen).
Size and Poly Dispersity Index were assessed by Dynamic Light Scattering (DLS) on a Malvern Zetasizer. MC-3 is the ionizable lipid used in Onpattro and is considered the state-of-the art.
as §1

[4] = Body weight after intratumoral LNP administration (B16F10 model); assay type: in vivo, C57/BL6 mice; conditions: B16F10 model (Example 2.5); after intratumoral administration of 10 μg mRNA LNP
[5] = Body weight after intratumoral LNP administration (CT26 model); assay type: in vivo, Balb/c mice; conditions: after intratumoral administration of 10 μg mRNA LNP
Method: Fluc mRNA expression in tumor and liver was assessed at 6 an 24 hours post injection. By injecting mice peritoneally with D-luciferin (Promega), bioluminescence can be measured through in vivo imaging (IVIS Spectrum System). Bioluminescence is generated through an oxidation reaction which occurs between the enzyme luciferase derived from the firefly mRNA encapsulated in the LNP and its substrate D-luciferin. The Living Image Software (PerkinElmer) was used to specify tumor and liver ‘region of interests (ROIs) after which the average radiance (p/s/cm^2/sr) was calculated within these ROIs. To monitor tolerability of different LNP types used, bodyweight at 6 and 24 hours post injection was compared to baseline bodyweight at day of randomization.
Balb/c mice were subcutaneously inoculated with CT26 tumor cells. When tumors reached a mean volume of 50-100 mm^3, tumors were injected with the respective mRNA LNPs (10 μg mRNA; 20 μl volume; TBS buffer) or with control buffer.

[6] = Table 3, LNP ionizable lipid/phospholipid/cholesterol/DMG-PEG2000 about 50/10/38.5/1.5, DOPE, except MC-3 with DSPC
[7] = Table 3, LNP ionizable lipid/phospholipid/cholesterol/DMG-PEG2000 about 50/10/38.5/1.5, DOPE, except MC-3 with DSPC, eGFP mRNA
[8] = Table 3, LNP ionizable lipid/phospholipid/cholesterol/DMG-PEG2000 about 50/10/38.5/1.5, DOPE, except MC-3 with DSPC, eGFP mRNA, in nm (unit assumed)
[9] = Table 5, ionizable lipid/DSPC/Chol/DMG-PEG2000 50/10/38.5/1.5 mol %, E7 mRNA
[10] = Table 2, LNP ionizable lipid/DOPE/cholesterol/DMG-PEG2000 about 50/10/38.5/1.5
[11] = Table 2, LNP ionizable lipid/DOPE/cholesterol/DMG-PEG2000 about 50/10/38.5/1.5, eGFP mRNA
[12] = Table 2, LNP ionizable lipid/DOPE/cholesterol/DMG-PEG2000 about 50/10/38.5/1.5, eGFP mRNA, mRNA/ionizable lipid molar ratio 1/10, in nm (unit assumed)
[13] = Table 7, Ratio 1: 50/10/38.5/1.5 mol % ionizable lipid/DSPC (SS-EC: DOPE)/Chol/DMG-PEG2000
[14] = Table 6 (Example 4, HA mRNA), ionizable lipid/DSPC/Chol/DMG-PEG2000 50/10/38.5/1.5 mol %
[15] = Table 6 (Example 4, HA mRNA), ionizable lipid/DSPC/Chol/DMG-PEG2000 50/10/38.5/1.5 mol %, N/P 10

SMILES | % encap [1, 6] [%] | PDI [2, 7] | size [2, 8] | % encap [1, 10] [%] | PDI [2, 11] | size [2, 12] | also measured
CCCCCCCC/C=C\CCCCCCCC(=O)OCC(CNC(=O)OCCOCCOC(=O)NCCCN1CCCCC1CC)OC(=O)CCCCCCC/C=C\CCCCCCCC (centres unmarked) [E-Ac6e-DOg] | 100 | 0.241 | 67.3 |  |  |  | 
CCCCCCCC/C=C\CCCCCCCC(=O)OCC(CNC(=O)OCCOCCOC(=O)NCCN1CCCCCC1)OC(=O)CCCCCCC/C=C\CCCCCCCC (centres unmarked) [E-Ac7-Dog] | 100 | 0.258 | 93.05 |  |  |  | 
CCCCCCCC/C=C\CCCCCCCC(=O)OCC(CNC(=O)OCCOC(C)(C)OCCOC(=O)NCCCN1CCCCC1CC)OC(=O)CCCCCCC/C=C\CCCCCCCC (centres unmarked) [K-Ac6e-DOg] | 95 | 0.268 | 75.8 |  |  |  | 
CCCCCCCCCCCCN(CCCCCCCCCCCC)C(=O)OCCOC(C)(C)OCCOC(=O)NCCN(C(C)C)C(C)C [K-Adip-Dda] |  |  |  | 97 | 0.292 | 78.59 | 
CCCCCCCCCCCCN(CCCCCCCCCCCC)C(=O)OCCOC(C)(C)OCCOC(=O)NCCN(C)C [K-Adm-Dda] |  |  |  | 100 | 0.197 | 65.56 | 
CCCCC/C=C\C/C=C\CCCCCCCCC(CCCCCCCC/C=C\C/C=C\CCCCC)OC(=O)CCCN(C)C [MC3, reference compound] | 94 | 0.08 | 73.33 | 100 | 0.103 | 73.14 | E.E. (encapsulation efficiency) [1, 9]: 99%; E.E. (encapsulation efficiency) [1, 13]: 96%; body weight [4]: significant body weight loss; PDI [3, 9]: 0.106; size [3, 9]: 67.57 nm; PDI [3, 13]: 0.117; size [3, 13]: 74 nm; body weight [5]: significant body weight loss
CCCCCCCC/C=C\CCCCCCCC(=O)OCC(CNC(=O)OCCSSCCOC(=O)NCCCN1CCCCC1CC)OC(=O)CCCCCCC/C=C\CCCCCCCC (centres unmarked) [S-Ac6e-DOg] | 95 | 0.311 | 63.86 |  |  |  | E.E. (encapsulation efficiency) [1, 9]: 92%; PDI [3, 9]: 0.266; size [3, 9]: 178.1 nm
CCCCCCCCCCCCN(CCCCCCCCCCCC)C(=O)OCCSSCCOC(=O)NCCN1CCCCCC1 [S-Ac7-Dda] |  |  |  | 95 | 0.223 | 74.28 | 
CCCCCCCCCCCCN(CCCCCCCCCCCC)C(=O)OCCSSCCOC(=O)NCCN(C(C)C)C(C)C [S-Adip-Dda] |  |  |  | 98 | 0.197 | 86.95 | 
CCCCCCCCC(CCCCCC)C(=O)OCCN(CCOC(=O)C(CCCCCC)CCCCCCCC)C(=O)OCCSSCCOC(=O)NCCN(C)C (centres unmarked) [S-Adm-DHDa] |  |  |  |  |  |  | E.E. (encapsulation efficiency) [1, 14]: 98%; PDI [2, 15]: 0.184; size [2, 15]: 79.075 nm
CCCCCCCC/C=C\CCCCCCCC(=O)OCC(CNC(=O)OCCSSCCOC(=O)NCCN(C)C)OC(=O)CCCCCCC/C=C\CCCCCCCC (centres unmarked) [S-Adm-DOg] | 98 | 0.3 | 68.08 |  |  |  | 
CCCCCCCCC(CCCCCC)C(=O)OCCN(CCOC(=O)C(CCCCCC)CCCCCCCC)C(=O)OCCSSCCOC(=O)NCCN1CCN(C)CC1 (centres unmarked) [S-Amp-DHDa] |  |  |  |  |  |  | E.E. (encapsulation efficiency) [1, 14]: 99%; PDI [2, 15]: 0.1515; size [2, 15]: 106.3 nm

The next lines start with results.

% encap [1, 6] [%] | PDI [2, 7] | size [2, 8] | % encap [1, 10] [%] | PDI [2, 11] | size [2, 12] | SMILES | also measured
100 | 0.217 | 59.56 |  |  |  | CCCCCCCC/C=C\CCCCCCCC(=O)OCC(CNC(=O)OCCOCCOC(=O)NCCN(C)C)OC(=O)CCCCCCC/C=C\CCCCCCCC (centres unmarked) [E-Adm-Dog] | 
93 | 0.108 | 62.26 |  |  |  | CCCCCCCC/C=C\CCCCCCCC(=O)OCC(CNC(=O)OCCOC(C)(C)OCCOC(=O)NCCN1CCCCCC1)OC(=O)CCCCCCC/C=C\CCCCCCCC (centres unmarked) [K-Ac7-DOg] | E.E. (encapsulation efficiency) [1, 9]: 49%; PDI [3, 9]: 0.130; size [3, 9]: 164.8 nm
94 | 0.157 | 91.9 |  |  |  | CCCCCCCC/C=C\CCCCCCCC(=O)OCC(CNC(=O)OCCOC(C)(C)OCCOC(=O)NCCN(C)C)OC(=O)CCCCCCC/C=C\CCCCCCCC (centres unmarked) [K-Adm-DOg] | 
93 | 0.158 | 89.44 | 99 | 0.188 | 71.05 | CCCCCCCCCCCCCCCCCCN(CCCCCCCCCCCCCCCCCC)C(=O)OCCSSCCOC(=O)NCCN1CCCCCC1 [S-Ac7-Dsa] | 
 |  |  | 101 | 0.153 | 70.9 | CCCCCCCCCCCCCCCCCCN(CCCCCCCCCCCCCCCCCC)C(=O)OCCSSCCOC(=O)NCCN(C(C)C)C(C)C [S-Adip-Dsa] | 
 |  |  | 100 | 0.44 | 115.3 | CCCCCCCCCCCCN(CCCCCCCCCCCC)C(=O)OCCSSCCOC(=O)NCCN(C)C [S-Adm-Dda] | 
100 | 0.137 | 91.15 | 98 | 0.042 | 82.11 | CCCCCCCCCCCCCCCCCCN(CCCCCCCCCCCCCCCCCC)C(=O)OCCSSCCOC(=O)NCCN(C)C [S-Adm-Dsa] | 
